In ChEMBL document CHEMBL4393664, “2,4-Disubstituted quinazolines targeting breast cancer cells via EGFR-PI3K” (Eur J Med Chem, 2019):
pIC50: −log10 of the molar value. The source made the active and inactive calls. No cut-off for these calls is given here.

Legend:
MCF7 [1] = assay: Induction of apoptosis in human MCF7 cells assessed as late apoptotic cells at 6 uM after 48 hrs by Annexin-V-FITC/propidium iodide staining based flow cytometry (reference value: 4.28%); format: functional
MDA-MB-231 [2] = assay: Induction of apoptosis in human MDA-MB-231 cells assessed as increase in nuclear lysis up to 8 uM after 48 hrs by DAPI staining-based fluorescence microscopic method; format: functional, cell-based
[3] = target: Epidermal growth factor receptor (Homo sapiens) (UniProt P00533); assay: Inhibition of EGFR phosphorylation at Y992 residues in human MDA-MB-231 cells after 8 hrs by Western blot analysis; format: cell-based
Epidermal growth factor receptor (Homo sapiens), sequence (P00533 whole entry): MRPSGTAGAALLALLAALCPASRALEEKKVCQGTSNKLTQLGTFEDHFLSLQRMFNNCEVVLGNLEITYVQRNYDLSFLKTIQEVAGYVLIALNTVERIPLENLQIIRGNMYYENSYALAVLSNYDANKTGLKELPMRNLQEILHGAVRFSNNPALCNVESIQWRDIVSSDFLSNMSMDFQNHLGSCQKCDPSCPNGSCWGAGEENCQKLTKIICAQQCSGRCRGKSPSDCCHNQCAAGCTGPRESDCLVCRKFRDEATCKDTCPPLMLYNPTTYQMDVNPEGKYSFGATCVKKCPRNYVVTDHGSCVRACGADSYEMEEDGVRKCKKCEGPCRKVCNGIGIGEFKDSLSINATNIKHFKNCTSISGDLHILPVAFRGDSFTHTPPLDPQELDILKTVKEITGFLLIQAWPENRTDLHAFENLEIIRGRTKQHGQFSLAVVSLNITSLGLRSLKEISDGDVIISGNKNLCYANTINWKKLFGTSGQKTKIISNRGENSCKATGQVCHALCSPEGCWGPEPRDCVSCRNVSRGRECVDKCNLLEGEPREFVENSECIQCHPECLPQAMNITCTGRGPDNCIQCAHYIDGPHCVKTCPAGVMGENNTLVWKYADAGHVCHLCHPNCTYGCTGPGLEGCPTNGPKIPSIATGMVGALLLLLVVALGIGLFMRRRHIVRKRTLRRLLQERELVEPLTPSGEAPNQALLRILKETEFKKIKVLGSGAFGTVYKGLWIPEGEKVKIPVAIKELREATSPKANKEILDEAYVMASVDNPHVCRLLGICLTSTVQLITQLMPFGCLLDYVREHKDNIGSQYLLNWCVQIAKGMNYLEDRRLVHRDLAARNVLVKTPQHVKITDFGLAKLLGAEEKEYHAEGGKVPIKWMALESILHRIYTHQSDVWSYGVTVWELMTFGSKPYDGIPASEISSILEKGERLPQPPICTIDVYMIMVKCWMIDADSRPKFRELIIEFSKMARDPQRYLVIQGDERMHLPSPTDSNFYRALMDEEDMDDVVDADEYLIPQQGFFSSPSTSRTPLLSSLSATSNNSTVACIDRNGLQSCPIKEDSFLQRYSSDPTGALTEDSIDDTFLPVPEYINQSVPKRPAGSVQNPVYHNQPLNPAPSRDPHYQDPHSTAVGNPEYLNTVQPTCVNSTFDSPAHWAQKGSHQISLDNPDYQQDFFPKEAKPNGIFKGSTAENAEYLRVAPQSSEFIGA

MDA-MB-231 [4] = assay: Cytotoxicity against human MDA-MB-231 cells assessed as reduction in cell viability after 72 hrs by MTT assay; format: functional, cell-based; settings: MDA-MB-231, 72 h
MCF7 [5] = assay: Induction of apoptosis in human MCF7 cells assessed as increase in nuclear lysis up to 8 uM after 48 hrs by DAPI staining-based fluorescence microscopic method; format: functional, cell-based
MDA-MB-231 [6] = assay: Induction of apoptosis in human MDA-MB-231 cells assessed as late apoptotic cells at 2 uM after 48 hrs by Annexin-V-FITC/propidium iodide staining based flow cytometry (reference value: 2.38%); format: functional
MDA-MB-231 [7] = assay: Induction of apoptosis in human MDA-MB-231 cells assessed as increase in p53 expression at 3 to 12 uM after 48 hrs by Western blot analysis; format: functional, cell-based
MDA-MB-231 [8] = assay: Induction of apoptosis in human MDA-MB-231 cells assessed as viable cells at 2 uM after 48 hrs by Annexin-V-FITC/propidium iodide staining based flow cytometry (reference value: 92.1%); format: functional; settings: MDA-MB-231, 48 h, read-out: Activity
MCF7 [9] = assay: Induction of apoptosis in human MCF7 cells assessed as viable cells at 4 uM after 48 hrs by Annexin-V-FITC/propidium iodide staining based flow cytometry (reference value: 91.1%); format: functional; settings: MCF7, 48 h, read-out: Activity

FC(F)(F)c1ccc(CSc2nc(Nc3ccc(C(F)(F)F)cc3)c3ccccc3n2)cc1
Activity (MCF7 [1]): 10.6% | Activity (MDA-MB-231 [2]): Active | inhibition [3]: Dose-dependent effect | pIC50 (MDA-MB-231 [4]): 5.26 | Activity (MCF7 [5]): Active | Activity (MDA-MB-231 [6]): 7.92% | Activity (MDA-MB-231 [7]): Active | viability at 2 µM (MDA-MB-231 [8]): 82.9% | viability at 4 µM (MCF7 [9]): 76.2%
